Measurements from patent US20110144014A1, “CYTOKINE RECEPTOR MODULATORS AND USES THEREOF” (CENTRE HOSPITALIER UNIVERSITAIRE SAINTE-JUSTINE, priority 2005, published 2011).
Where a SMILES comes first, the peptide text is derived from it. [ ]: non-standard residue; d: D form.

Experiments:
IL-1R/IL-1RacP [1] = biological target: T1, IL-1R/IL-1RacP (Rattus norvegicus, UniProt Q02955+Q63621); test: IL-1β induced hypotension in rats; assay type: in vivo
T1 construct: 300 g Sprague-Dawley rats were anesthetized with isoflurane; from tissue; host or cells: whole animal (Sprague-Dawley rat)
T1 sequence (Q02955 20-576): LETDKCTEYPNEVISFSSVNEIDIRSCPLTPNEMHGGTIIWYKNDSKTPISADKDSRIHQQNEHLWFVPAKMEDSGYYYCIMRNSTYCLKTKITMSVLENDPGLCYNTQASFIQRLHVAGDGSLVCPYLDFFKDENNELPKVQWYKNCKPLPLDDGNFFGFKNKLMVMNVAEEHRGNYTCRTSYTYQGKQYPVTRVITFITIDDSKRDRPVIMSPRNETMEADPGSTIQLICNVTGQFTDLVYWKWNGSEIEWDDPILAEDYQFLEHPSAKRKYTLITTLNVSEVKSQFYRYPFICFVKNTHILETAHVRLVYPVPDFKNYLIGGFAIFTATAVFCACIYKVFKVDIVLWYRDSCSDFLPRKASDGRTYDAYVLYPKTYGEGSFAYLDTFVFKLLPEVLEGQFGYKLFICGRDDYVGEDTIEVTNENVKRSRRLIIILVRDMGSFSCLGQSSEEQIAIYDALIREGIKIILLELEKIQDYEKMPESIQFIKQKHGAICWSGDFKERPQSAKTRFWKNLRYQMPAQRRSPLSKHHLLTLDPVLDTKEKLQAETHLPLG
T1 sequence (Q63621 21-570): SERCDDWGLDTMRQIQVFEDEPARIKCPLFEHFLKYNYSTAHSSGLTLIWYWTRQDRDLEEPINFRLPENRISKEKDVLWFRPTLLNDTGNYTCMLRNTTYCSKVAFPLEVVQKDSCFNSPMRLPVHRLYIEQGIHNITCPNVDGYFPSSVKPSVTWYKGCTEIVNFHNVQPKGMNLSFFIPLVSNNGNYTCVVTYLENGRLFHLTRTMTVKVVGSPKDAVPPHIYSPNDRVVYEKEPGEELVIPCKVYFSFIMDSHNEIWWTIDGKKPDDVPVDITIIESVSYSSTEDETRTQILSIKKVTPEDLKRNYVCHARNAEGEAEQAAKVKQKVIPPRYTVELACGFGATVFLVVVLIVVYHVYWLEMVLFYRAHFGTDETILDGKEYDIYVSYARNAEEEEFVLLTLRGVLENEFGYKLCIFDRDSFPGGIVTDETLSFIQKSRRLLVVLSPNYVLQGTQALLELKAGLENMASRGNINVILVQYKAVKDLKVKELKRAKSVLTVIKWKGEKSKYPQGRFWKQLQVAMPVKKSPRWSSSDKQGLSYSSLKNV
Description: The goal of the next experiment was to verify whether the identified peptides can reverse the physiological actions of the natural cytokine in vivo either by injecting them through the jugular or directly in the stomach (to verify the stability of the peptide through the digestive tractus). 300 g Sprague-Dawley rats were anesthetized with isoflurane (2.5-4%). IL-1β was injected through the jugular. Blood was taken from the carotid for further analyses before and after (10 minutes) every injection. Peptides were then injected either directly in the stomach with a catheter or in the jugular at the concentration desired. Arterial blood pressure and other physiological characteristics were monitored at all times.
(§1) The API-101 derivatives, API-101.10 (and others) were also tested to assess whether they could reverse the physiological actions of the natural ligand in vivo by injecting the derivative through the jugular or directly into the stomach (to verify the stability of the peptide through the digestive tract). […] Arterial blood pressure and heart rate were continuously monitored (Gould) while temperature and blood gases (Radiometer) were measured for routine analysis as previously described (Li et al., Am. J. Physiol. 273:R1283-R1290, 1997; Hardy et al., Pediatr. Res. 46:375-382, 1999; Najarian et al., Circ. Res. 87:1149-1156, 2000). […]

IL-1R/IL-1RacP [2] = biological target: T1, IL-1R/IL-1RacP; test: PGE2 levels in rat blood serum after IL-1β; assay type: in vivo; details: peptide injected directly in the stomach
Description: Another way of assessing the effect of cytokine receptor subfragments on IL-1R activity in vivo is by measuring PGE2 levels in rat blood serum. Rat blood samples were collected from in vivo experiments (e.g., protocol for IL-1 induced hypotension) and centrifuged at maximum speed for 15 minutes. The serum was then passed through a Waters purification column to isolate the lipidic part. Samples were evaporated and PGE2 quantities were determined with a radioimmuno assay (RIA) using a commercial kit (Cederlane).
as §1, with “tract). Sprague-Dawley rats (300 g) were anesthetized with isoflurane (2.5-4%). The natural ligand (IL-1β) or vehicle (saline) was injected through the jugular vein (5 μg/kg).” for “tract).”

IL-1R/IL-1RacP [3] = test: IL-1-induced PGE2 synthesis in endothelial cells; assay type: cell-based, porcine
Description: Efficiencies and inhibitory activities of the mutated peptides were determined by measuring the inhibition of IL-1-induced PGE2 synthesis. […] All peptides were tested at concentration 10^−6M.
The arginine of API-101.10 (SEQ ID NO: 10) was replaced by citrulline—to change from a guanidine to a urea group near the N-terminal. Other mutations (e.g. E to Q in API-101.102 and API-101.103) and a truncated peptide at the C-terminal (API-101.108) were also performed to improve the potency and the efficacy of the peptides. Measurement of PGE2 was performed with piglet brain microvessel endothelial cells and WI-38 human fibroblasts. Some of the mutations were advantageous and gave major increases in potency.
IL-1-induced PGE2 synthesis assay on endothelial cells was used as a screening assay for the peptidomimetics.

CC(C)C[C@@H](NC(=O)[C@@H](CCC(=O)O)NC(=O)[C@H](NC(=O)[C@H](NC(=O)[C@@H](Cc1ccc(O)cc1)NC(=O)[C@H](N)CCCNC(=N)N)[C@H](C)O)C(C)C)C(=O)N[C@H](C)C(N)=O [API-101.10, RYTVELA] (H-[dR][dY][dT][dV][dE][dL][dA]-NH2; N-terminus and C-terminus assumed)
reduction of IL-1β induced hypotension (IL-1R/IL-1RacP [1]; directly into the stomach, 10^−5M): 60% | prevention of IL-1β induced hypotension (IL-1R/IL-1RacP [1]; jugular vein injection, 10^−8M, IL-1β 5 μg/kg): 95% | prevention of PGE2 synthesis in vivo (IL-1R/IL-1RacP [2]): Higher inhibition | IC50 (IL-1R/IL-1RacP [3]): 1.2 nM
